# pEC50: −log10 of the molar value.
# Tests used:
# K. pneumoniae 848844 = test: microbe, parasite or virus in culture; format: cell-based; details: Klebsiella pneumoniae, 848844, read-out: MIC K. pneumoniae 848844
# N. gonorrhoeae WHO X = test: Liquid broth MIC in Fastidious broth; details: Neisseria gonorrhoeae, read-out: Minimum Inhibitory Concentration (MIC), N. gonorrhoeae WHO X
# E. coli 901C = test: microbe, parasite or virus in culture; format: cell-based; details: Escherichia coli, read-out: MIC E. coli 901C
# E. coli AG100 = test: microbe, parasite or virus in culture; format: cell-based; details: Escherichia coli, AG100, read-out: MIC E. coli AG100
# P. aeruginosa ATCC 35151 = test: microbe, parasite or virus in culture; format: cell-based; details: Pseudomonas aeruginosa, ATCC35151, read-out: MIC P. aeruginosa ATCC 35151
# E. coli D22 = test: microbe, parasite or virus in culture; format: cell-based; details: Escherichia coli, D22, read-out: MIC E. coli D22
# N. gonorrhoeae WHO G = test: Liquid broth MIC in Fastidious broth; details: Neisseria gonorrhoeae, read-out: Minimum Inhibitory Concentration (MIC), N. gonorrhoeae WHO G
# N. gonorrhoeae WHO L = test: Liquid broth MIC in Fastidious broth; details: Neisseria gonorrhoeae, read-out: Minimum Inhibitory Concentration (MIC), N. gonorrhoeae WHO L
# N. gonorrhoeae MS11 = test: Liquid broth MIC in Fastidious broth; details: Neisseria gonorrhoeae, MS11, read-out: Minimum Inhibitory Concentration (MIC), N. gonorrhoeae MS11
# [1] = test system: N. gonorrhoeae ATCC 49226; test: Liquid broth MIC in Fastidious broth; details: Neisseria gonorrhoeae, ATCC49226, read-out: Minimum Inhibitory Concentration (MIC), N. gonorrhoeae ATCC 49226
# K. pneumoniae UMM = test: microbe, parasite or virus in culture; format: cell-based; details: Klebsiella pneumoniae, read-out: MIC K. pneumoniae UMM
# E. coli AG100A = test: Broth microdilution MIC in CAMHB; format: cell-based; details: Escherichia coli, read-out: MIC E. coli AG100A
# [2] = target: T1, PBP3 from Escherichia coli (K-12) (Escherichia coli, UniProt P0AD68); test: Bocillin-FL fluorescence polarization competition binding, E. coli PBP3
# T1 construct: made in house
# Outline: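 Purified PBPs pre-incubated with inhibitor (E. coli PBP3 1.5 μM, 30 min; P. aeruginosa PBP3 0.75 μM, A. baumannii PBP1a 1 μM and PBP3 0.2 μM, 15 min), then Bocillin-FL 0.1 μM (0.05 μM for PBP1a) added; FP read up to 60 min. EC50 = concentration halving bound Bocillin-FL.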
# N. gonorrhoeae WHO M = test: Liquid broth MIC in Fastidious broth; details: Neisseria gonorrhoeae, read-out: Minimum Inhibitory Concentration (MIC), N. gonorrhoeae WHO M
# T1 sequence (P0AD68 1-577): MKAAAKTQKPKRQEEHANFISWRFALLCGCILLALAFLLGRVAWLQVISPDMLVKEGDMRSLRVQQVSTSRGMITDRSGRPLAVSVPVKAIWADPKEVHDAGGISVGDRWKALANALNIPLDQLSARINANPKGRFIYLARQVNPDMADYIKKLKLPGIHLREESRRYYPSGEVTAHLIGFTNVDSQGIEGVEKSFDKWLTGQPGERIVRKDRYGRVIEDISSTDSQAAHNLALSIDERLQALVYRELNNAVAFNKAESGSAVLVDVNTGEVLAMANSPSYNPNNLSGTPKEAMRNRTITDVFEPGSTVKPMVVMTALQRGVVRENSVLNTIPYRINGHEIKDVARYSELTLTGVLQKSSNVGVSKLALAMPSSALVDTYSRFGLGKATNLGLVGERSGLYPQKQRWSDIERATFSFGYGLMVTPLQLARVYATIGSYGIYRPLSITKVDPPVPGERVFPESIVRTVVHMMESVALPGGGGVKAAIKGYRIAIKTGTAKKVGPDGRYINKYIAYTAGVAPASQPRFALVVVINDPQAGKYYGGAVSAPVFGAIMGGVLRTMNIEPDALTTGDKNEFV
Compound,MIC (K. pneumoniae 848844),MIC (N. gonorrhoeae WHO X),MIC (E. coli 901C),MIC (E. coli AG100),MIC (P. aeruginosa ATCC 35151),MIC (E. coli D22),MIC (N. gonorrhoeae WHO G),MIC (N. gonorrhoeae WHO L),MIC (N. gonorrhoeae MS11),MIC [1],MIC (K. pneumoniae UMM),MIC (E. coli AG100A),pEC50 [2],MIC (N. gonorrhoeae WHO M)
"O=C(O)c1cccc2c1OB(O)[C@@H](NC(=O)[C@H](NC(=O)[C@@H]1CCCN1)c1ccc(P(=O)(O)O)cc1)C2 [Example 173, (R)-2-hydroxy-3-((R)-2-(4-phosphonophenyl)-2-((S)-pyrrolidine-2-carboxamido)acetamido)-3,4-dihydro-2H-benzo[e][1,2]oxaborinine-8-carboxylic acid]",> 128 µg/mL,16 to 32 µg/mL,32 to 64 µg/mL,> 128 µg/mL,8 to 16 µg/mL,32 to 64 µg/mL,4 to 8 µg/mL,16 to 32 µg/mL,16 to 32 µg/mL,16 to 32 µg/mL,32 to 64 µg/mL,32 to 64 µg/mL,3.60 to 4.30,4 to 8 µg/mL
CN1CCC[C@H]1C(=O)NC(C(=O)N[C@H]1Cc2cccc(C(=O)O)c2OB1O)c1ccc(P(=O)(O)O)cc1 (stereo partly drawn) [Example 66],> 128 µg/mL,16 to 32 µg/mL,32 to 64 µg/mL,> 128 µg/mL,8 to 16 µg/mL,32 to 64 µg/mL,4 to 8 µg/mL,16 to 32 µg/mL,16 to 32 µg/mL,16 to 32 µg/mL,> 128 µg/mL,32 to 64 µg/mL,3.60 to 4.30,4 to 8 µg/mL
"CS(=O)(=O)N1CCN(C(=O)NC(C(=O)N[C@H]2Cc3cccc(C(=O)O)c3OB2O)c2ccc(P(=O)(O)O)c(O)c2)C1=O (stereo partly drawn) [Example 17, (3R)-2-hydroxy-3-(2-(3-hydroxy-4-phosphonophenyl)-2-(3-(methylsulfonyl)-2-oxoimidazolidine-1-carboxamido)acetamido)-3,4-dihydro-2H-benzo[e][1,2]oxaborinine-8-carboxylic acid]",> 128 µg/mL,< 1 µg/mL,< 1 µg/mL,8 to 16 µg/mL,< 1 µg/mL,2 to 4 µg/mL,< 1 µg/mL,< 1 µg/mL,< 1 µg/mL,< 1 µg/mL,32 to 64 µg/mL,8 to 16 µg/mL,> 5.00,< 1 µg/mL
"CC(C)S(=O)(=O)NC(C(=O)N[C@H]1Cc2cccc(C(=O)O)c2OB1O)c1ccc(P(=O)(O)O)cc1 (stereo partly drawn) [Example 60, (3R)-2-hydroxy-3-(2-((1-methylethyl)sulfonamido)-2-(4-phosphonophenyl)acetamido)-3,4-dihydro-2H-benzo[e][1,2]oxaborinine-8-carboxylic acid]",> 128 µg/mL,16 to 32 µg/mL,32 to 64 µg/mL,> 128 µg/mL,32 to 64 µg/mL,> 128 µg/mL,16 to 32 µg/mL,16 to 32 µg/mL,16 to 32 µg/mL,16 to 32 µg/mL,> 128 µg/mL,> 128 µg/mL,< 3.60,4 to 8 µg/mL
"CS(=O)(=O)N1CCN(C(=O)NC(C(=O)N[C@H]2Cc3cccc(C(=O)O)c3OB2O)c2ccc(P(=O)(O)O)c(Cl)c2)C1=O (stereo partly drawn) [Example 11, (3R)-3-(2-(3-chloro-4-phosphonophenyl)-2-(3-(methylsulfonyl)-2-oxoimidazolidine-1-carboxamido)acetamido)-2-hydroxy-3,4-dihydro-2H-benzo[e][1,2]oxaborinine-8-carboxylic acid]",> 128 µg/mL,1 to 2 µg/mL,< 1 µg/mL,32 to 64 µg/mL,8 to 16 µg/mL,8 to 16 µg/mL,< 1 µg/mL,1 to 2 µg/mL,< 1 µg/mL,< 1 µg/mL,> 128 µg/mL,8 to 16 µg/mL,> 5.00,< 1 µg/mL
"O=C(O)c1cccc2c1OB(O)[C@@H](NC(=O)[C@@H](NC(=O)c1cccn(C(F)F)c1=O)c1ccc(P(=O)(O)O)cc1)C2 (single isomer, unassigned) [Example 190]",> 128 µg/mL,16 to 32 µg/mL,2 to 4 µg/mL,> 128 µg/mL,2 to 4 µg/mL,32 to 64 µg/mL,1 to 2 µg/mL,16 to 32 µg/mL,4 to 8 µg/mL,4 to 8 µg/mL,> 128 µg/mL,> 128 µg/mL,4.30 to 5.00,1 to 2 µg/mL
